The target in the assay is T1, BRD9 (Homo sapiens, UniProt Q9H8M2).
T1 sequence (Q9H8M2 1-597): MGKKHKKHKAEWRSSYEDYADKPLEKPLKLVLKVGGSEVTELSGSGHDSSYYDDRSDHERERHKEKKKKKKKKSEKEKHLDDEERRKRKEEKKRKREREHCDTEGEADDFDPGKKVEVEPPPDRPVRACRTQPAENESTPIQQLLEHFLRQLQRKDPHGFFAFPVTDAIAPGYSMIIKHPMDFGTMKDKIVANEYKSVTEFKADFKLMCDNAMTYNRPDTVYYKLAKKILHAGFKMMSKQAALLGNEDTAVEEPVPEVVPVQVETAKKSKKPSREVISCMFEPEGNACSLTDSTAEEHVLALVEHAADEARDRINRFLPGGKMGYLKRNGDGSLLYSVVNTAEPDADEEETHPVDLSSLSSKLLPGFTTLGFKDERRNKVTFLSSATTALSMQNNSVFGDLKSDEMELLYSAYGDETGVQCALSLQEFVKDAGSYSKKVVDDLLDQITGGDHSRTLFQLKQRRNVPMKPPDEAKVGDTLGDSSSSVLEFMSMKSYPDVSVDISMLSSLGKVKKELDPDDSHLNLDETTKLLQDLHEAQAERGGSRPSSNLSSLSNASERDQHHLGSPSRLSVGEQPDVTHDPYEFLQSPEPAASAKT
In words: Degradation of BRD9 (IF), immunofluorescence in MV4-11 cells, 24 hours (Assay Protocol 2). It is filed as cell-based. The arrangement: A suspension of MV4-11 cells (ATCC CRL-9591) was prepared; host or cells: MV4-11. To be noted: BRD9 degradation; for DC50: Assay protocol 2, read-out: DC50. The method, boiled down:
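MV4-11 cells treated with compound 24 h at 37° C., then fixed, permeabilised and immunostained for BRD9 (anti-BRD9 E4Q3F, Alexa 647 secondary, Hoechst counterstain). High-content imaging quantified nuclear BRD9 signal; % BRD9 remaining normalised to DMSO and 100 nM CFT-8634 controls.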

[1] abbreviates: MV4-11, Assay protocol 2, read-out: Dmax.

Like-named read-outs stand apart in the source and are kept apart here.

DC50 and Dmax data for 16 molecules are collected here from patent US20260092061A1, “COMPOUNDS FOR TARGETED PROTEIN DEGRADATION” (Amphista Therapeutics Limited, priority 2022, published 2026).

For the molecule `COc1cc(-c2cn(C)c(=O)c(C)c2C)cc(OC)c1CN1CCN(Cc2cccc3c2CCN(C(=O)/C(C#N)=C/C2(C(F)(F)F)CC2)C3C)C2(CC2)C1` (mixture of isomers) [Compound B153, (E/Z)-2-[5-[[7-[[2,6-dimethoxy-4-(1,4,5-trimethyl-6-oxo-3-pyridyl)phenyl]methyl]-4,7-diazaspiro[2.5]octan-4-yl]methyl]-1-methyl-3,4-dihydro-1H-isoquinoline-2-carbonyl]-3-[1-(trifluoromethyl)cyclopropyl]prop-2-enenitrile], the DC50 is below 1.25 nM. Besides, under setting [1], the maximal degradation (Dmax) was above 75%.
Regarding `COc1cc(-c2cn(C)c(=O)c(C)c2C)ccc1OC1CCC(Cc2cccc3c2CCN(C(=O)C(C#N)=CC(C)(C)N2CCN(C4COC4)CC2)C3C(C)C)CC1` (single isomer, unassigned) [Compound C86], the DC50 is 25 to 1000 nM. Besides, the Dmax under setting [1] was above 75%.
Turning to `COc1cc(-c2cn(C)c(=O)c3ccsc23)cc(OC)c1CN1CCN(Cc2cccc3c2CCN(C(=O)/C(C#N)=C/C(C)(C)C)C3C)C2(CC2)C1` (mixture of isomers) [Compound B107, (E/Z)-2-(5-((7-(2,6-dimethoxy-4-(5-methyl-4-oxo-4,5-dihydrothieno[3,2-c]pyridin-7-yl)benzyl)-4,7-diazaspiro[2.5]octan-4-yl)methyl)-1-methyl-1,2,3,4-tetrahydroisoquinoline-2-carbonyl)-4,4-dimethylpent-2-enenitrile], the DC50 is below 1.25 nM. For the same molecule, the Dmax under setting [1] was above 75%.
The matching figures for `COc1cc(-c2cn(C)c(=O)c(C)c2C)cc(OC)c1CN1CCN(Cc2cccc3c2CCN(C(=O)/C(C#N)=C\C24CC(C)(C2)C4)C3C)C2(CC2)C1` (mixture of isomers) [Compound B161, (E/Z)-2-(5-((7-(2,6-dimethoxy-4-(1,4,5-trimethyl-6-oxo-1,6-dihydropyridin-3-yl)benzyl)-4,7-diazaspiro[2.5]octan-4-yl)methyl)-1-methyl-1,2,3,4-tetrahydroisoquinoline-2-carbonyl)-3-(3-methylbicyclo[1.1.1]pentan-1-yl)acrylonitrile]: below 1.25 nM and above 75%.
For `COc1cc(-c2cn(C)c(=O)c(C)c2C)cc(OC)c1CN1CCN(Cc2ccc3c(c2)[C@@H](C(C)C)N(C(=O)/C(C#N)=C/C(C)(C)CF)CC3)C2(CC2)C1` (single isomer, unassigned) [Compound C97, (E/Z)-2-(7-((7-(2,6-dimethoxy-4-(1,4,5-trimethyl-6-oxo-1,6-dihydropyridin-3-yl)benzyl)-4,7-diazaspiro[2.5]octan-4-yl)methyl)-1-isopropyl-1,2,3,4-tetrahydroisoquinoline-2-carbonyl)-5-fluoro 4,4-dimethylpent-2-enenitrile], the DC50 lay in the range of 10 to 25 nM. Also, the Dmax under setting [1] is 70 to 75%.
On the same counts, the results for `COc1cc(-c2cn(C)c(=O)c(C)c2C)cc(OC)c1CN1CCCN(Cc2cccc3c2CCN(C(=O)/C(C#N)=C/C(C)(C)C)C3C(C)C)CC1` (mixture of isomers) [Compound C11, (E/Z)-2-(5-((4-(2,6-dimethoxy-4-(1,4,5-trimethyl-6-oxo-1,6-dihydropyridin-3-yl)benzyl)-1,4-diazepan-1-yl)methyl)-1-isopropyl-1,2,3,4-tetrahydroisoquinoline-2-carbonyl)-4,4-dimethylpent-2-enenitrile] are 1.25 to 10 nM and 40 to 70%.
On the same counts, the results for `COc1cc(-c2cn(C)c(=O)c(C)c2C)cc(OC)c1CN1CCN(Cc2cccc3c2CCN(C(=O)/C(C#N)=C/C(C)(C)C)C3C)C2(CCC2)C1` (mixture of isomers) [Compound B130, (E/Z)-2-(5-((8-(2,6-dimethoxy-4-(1,4,5-trimethyl-6-oxo-1,6-dihydropyridin-3-yl)benzyl)-5,8-diazaspiro[3.5]nonan-5-yl)methyl)-1-methyl-1,2,3,4-tetrahydroisoquinoline-2-carbonyl)-4,4-dimethylpent-2-enenitrile] are 10 to 25 nM and above 75%.
The matching figures for `COc1cc(-c2cn(C)c(=O)c(C)c2C)cc(OC)c1CN1CCN(S(=O)(=O)c2cccc3c2CCN(C(=O)/C(C#N)=C\C(C)(C)C)C3C)CC1` (mixture of isomers) [Compound C75, (E/Z)-2-(5-((4-(2,6-dimethoxy-4-(1,4,5-trimethyl-6-oxo-1,6-dihydropyridin-3-yl)benzyl)piperazin-1-yl)sulfonyl)-1-methyl-1,2,3,4-tetrahydroisoquinoline-2-carbonyl)-4,4-dimethylpent-2-enenitrile]: 25 to 1000 nM and above 75%.
Turning to `CC[C@H]1c2cccc(CN3CCN(Cc4c(OC)cc(-c5cn(C)c(=O)c(C)c5C)cc4OC)CC34CC4)c2CCN1C(=O)/C(C#N)=C/C(C)(C)CF` (single isomer, unassigned) [Compound C92, (E/Z)-2-(5-((7-(2,6-dimethoxy-4-(1,4,5-trimethyl-6-oxo-1,6-dihydropyridin-3-yl)benzyl)-4,7-diazaspiro[2.5]octan-4-yl)methyl)-1-ethyl-1,2,3,4-tetrahydroisoquinoline-2-carbonyl)-5-fluoro-4,4-dimethylpent-2-enenitrile], the maximal degradation (Dmax) under setting [1] lay in the range of 40 to 70%.
Turning to `COc1cc(-c2cn(C)c(=O)c(C)c2C)cc(OC)c1CN1CCN(Cc2cccc3c2CCN(C(=O)/C(C#N)=C/C2(C)CCOCC2)[C@@H]3C)C2(CC2)C1` (single isomer, unassigned) [Compound B193, (E/Z)-2-(5-((7-(2,6-dimethoxy-4-(1,4,5-trimethyl-6-oxo-1,6-dihydropyridin-3-yl)benzyl)-4,7-diazaspiro[2.5]octan-4-yl)methyl)-1-methyl-1,2,3,4-tetrahydroisoquinoline-2-carbonyl)-3-(4-methyltetrahydro-2H-pyran-4-yl)acrylonitrile], the 50% degradation concentration (DC50) was below 1.25 nM. Besides, the Dmax under setting [1] was above 75%.
The matching figures for `COc1cc(-c2cn(C)c(=O)c(C)c2C)cc(OC)c1CN1CCN(Cc2cccc3c2CCN(C(=O)/C(C#N)=C/c2cccc(Br)n2)C3C(C)C)CC1` (mixture of isomers) [Compound C21, (E/Z)-3-(6-bromopyridin-2-yl)-2-(5-((4-(2,6-dimethoxy-4-(1,4,5-trimethyl-6-oxo-1,6-dihydropyridin-3-yl)benzyl)piperazin-1-yl)methyl)-1-isopropyl-1,2,3,4-tetrahydroisoquinoline-2-carbonyl)acrylonitrile]: 1.25 to 10 nM and 70 to 75%.
Turning to `COc1cc(-c2cn(C)c(=O)c(C)c2C)cc(OC)c1CN(C)C1CCN(C(=O)/C(C#N)=C/c2cccc(C(F)(F)F)n2)CC1` [BRD9aa, (E/Z)-2-(4-((2,6-dimethoxy-4-(1,4,5-trimethyl-6-oxo-1,6-dihydropyridin-3-yl)benzyl)(methyl)amino)piperidine-1-carbonyl)-3-(6-(trifluoromethyl)pyridin-2-yl)acrylonitrile], the Dmax (MV4-11, Table 4, determined according to Assay Protocol 2, read-out: Dmax^2) is above 70%.
On to `COc1cc(-c2cn(C)c(=O)c(C)c2C)cc(OC)c1CN1CCN(Cc2cccc3c2CCN(C(=O)/C(C#N)=C/C(C)(C)F)C3C)C2(CC2)C1` (mixture of isomers) [Compound B140, (E/Z)-2-[5-[[7-[[2,6-dimethoxy-4-(1,4,5-trimethyl-6-oxo-3-pyridyl)phenyl]methyl]-4,7-diazaspiro[2.5]octan-4-yl]methyl]-1-methyl-3,4-dihydro-1H-isoquinoline-2-carbonyl]-4-fluoro-4-methyl-pent-2-enenitrile], for which the half-maximal degradation concentration (DC50) was below 1.25 nM. The maximal degradation (Dmax) under setting [1] is above 75%.
The matching figures for `COc1cc(-c2cn(C)c(=O)c3[nH]ncc23)cc(OC)c1CN1CCN(Cc2cccc3c2CCN(C(=O)/C(C#N)=C/c2cccc(Br)n2)C3C)C2(CC2)C1` (mixture of isomers) [Compound B118, (E/Z)-3-(6-bromopyridin-2-yl)-2-(5-((7-(2,6-dimethoxy-4-(6-methyl-7-oxo-6,7-dihydro-1H-pyrazolo[3,4-c]pyridin-4-yl)benzyl)-4,7-diazaspiro[2.5]octan-4-yl)methyl)-1-methyl-1,2,3,4-tetrahydroisoquinoline-2-carbonyl)acrylonitrile]: below 1.25 nM and 70 to 75%.
On the same counts, the results for `COc1cc(-c2cn(C)c(=O)c(C)c2C)cc(OC)c1CN1CCC(O)(Cc2cccc3c2CCN(C(=O)/C(C#N)=C/C(C)(C)C)C3C)CC1` (mixture of isomers) [Compound B175, (E/Z)-2-(5-((1-(2,6-dimethoxy-4-(1,4,5-trimethyl-6-oxo-1,6-dihydropyridin-3-yl)benzyl)-4-hydroxypiperidin-4-yl)methyl)-1-methyl-1,2,3,4-tetrahydroisoquinoline-2-carbonyl)-4,4-dimethylpent-2-enenitrile] are 25 to 1000 nM and 40 to 70%.
On the same counts, the results for `COc1cc(-c2cn(C)c(=O)c(C)c2C)cc(OC)c1CN1CCC(Cc2cccc3c2CCN(C(=O)/C(C#N)=C/C(C)(C)CF)C3C(C)C)CC1` (mixture of isomers) [Compound C80] are 1.25 to 10 nM and 70 to 75%.
